In one series the test system is DU145 (p53, mt). Briefly: MTT cytotoxicity assay, DU145. The series is classed as cell-based. The conditions noted are these: Homo sapiens, DU-145, 96 hr. The procedure: (§1) To evaluate the cytotoxic activity of the two compounds, human prostate cancer cells (PC-3, LNCaP, and DU145) were plated into 96-well plate and incubated for 96 hr with various concentrations of desired drugs. During the last 2 hr, MTT (3-(4,5-dimethylthiazol-2-yl)-2,5-diphenyltetrazolium bromide) was added and the dark-blue formazan formed in live cells was dissolved in dimethyl sulfoxide and the absorbance was measured with a FLUOstar Optima microplate reader (BMG LABTECH Inc., Durham, N.C.) at 570 nm. The IC50 was defined as the concentration of a drug that inhibited cell growth by 50% (see Dong et al, supra, and Dong Z, et al. “Organ-specific modulation of steady-state mdr gene expression and drug resistance in murine colon cancer cells” J. Natl. Cancer Inst 1994;86(12):913-20, both references fully incorporated herein by this reference).
In general terms: Formazan colour is commonly taken as a measure of viable cells.

The next series relates to PC-3 (p53, del). Briefly: MTT cytotoxicity assay, PC-3. The series is classed as cell-based. Particulars: Homo sapiens, 96 hr. The protocol: as §1
The test system of a further series is PC-3MM2 cells. Nature of the series: Cell cycle and apoptosis in PC-3MM2 cells. In kind it is cell-based, human. The procedure:
(§2) Taxol is known to kill tumor cells by inducing arrest of cells at […] cell cycle and apoptosis. To identify mechanisms by which DL-001 killed tumor cells, we compared effects of DL-001 and Taxol on PC-3MM2 cells. […] To verify the role of DL-001 in inducing apoptosis, the activity of caspase 2,3,6,8 and 9 was analyzed. PC-3MM2 cells are treated with 50 nM of DL-001, taxol, or vincristine for 24 hr. Caspase activities in the treated cells are assessed by using a fluorometric caspase assay kit (Bio Vision, Mountain View, Calif.).

Another series deals with MDA435 (p53, mt). Nature of the series: MTT cytotoxicity assay, MDA435. The series is classed as cell-based. The conditions noted are these: Homo sapiens. The procedure: as §1
(§3) In addition, the present inventors discovered that the compounds could also effectively kill human breast (MCF-7 and MDA435) and melanoma (A375) cells, as well as several lines of mouse tumor cells, with similar potencies (Table 1). Moreover, DL-001 could effectively kill endothelial cells derived from mouse lung and prostate (Table 1). Furthermore, it appears that tumor cells (LNCaP, MCF-7, and A375) that harbor the wildtype p53 tumor suppressor gene were relatively more sensitive to DL-001 (Table 1).

Another series relates to CT-26 (colon). Briefly: MTT cytotoxicity assay, CT-26. The conditions noted are these: CT26, mouse cells, parental. In kind it is cell-based. The protocol: as §1, §3
The next series has as its system 4T1 (breast). Nature of the series: MTT cytotoxicity assay, 4T1. In kind it is cell-based. The conditions noted are these: mouse cells. The procedure: as §1, §3
In series [1] the test system is mouse endothelial cells, lung. Nature of the series: MTT cytotoxicity assay, lung endothelial cells. The series is classed as cell-based. The conditions noted are these: Endothelial cell. The protocol: as §1, §3
The next series concerns PC-3MM2 tumors. Briefly: Orthotopic model of PC-3 human prostate cancer cells in nude mice. Particulars: for toxic side effects on mice: based on body weight and H & E-stained sections of heart, lung, liver, kidney, spleen. The series is classed as in vivo. The protocol: PC-3MM2 cells are implanted into the prostate of nude mice. The therapy begins 3 days later, when tumors are established, by daily intraperitoneal injection of DL-001 at 10 mg/kg or 20 mg/kg of body weight or of DMSO (solvent). Experiments are terminated 3 weeks later.

The test system of another series is caspase 2. Nature of the series: Fluorometric caspase assay in PC-3MM2 cells, caspase 2. In kind it is cell-based, human. Particulars: 50 nM, 24 hr. The protocol:
as §2

Series [2] has as its system mouse endothelial cells, prostate. Nature of the series: MTT cytotoxicity assay, prostate endothelial cells. Particulars: Endothelial cell. In kind it is cell-based. The procedure:
as §1, §3

Another series has as its system A375 (p53, wt). Briefly: MTT cytotoxicity assay, A375. In kind it is cell-based. The conditions noted are these: Homo sapiens, A-375. The procedure: as §1, §3
For a further series, the system named is TRAMP (prostate). Nature of the series: MTT cytotoxicity assay, TRAMP. In kind it is cell-based. Particulars: mouse cells. The protocol: as §1, §3
The next series relates to LNCaP (p53, wt). Nature of the series: MTT cytotoxicity assay, LNCaP. In kind it is cell-based. Particulars: Homo sapiens, 96 hr. The protocol:
as §1

Another series relates to caspase 3. Nature of the series: Fluorometric caspase assay in PC-3MM2 cells, caspase 3. In kind it is cell-based, human. Particulars: 50 nM, 24 hr. The procedure:
as §2

In a further series the test system is caspase 9. Briefly: Fluorometric caspase assay in PC-3MM2 cells, caspase 9. In kind it is cell-based, human. Particulars: 50 nM, 24 hr. The procedure:
as §2

The subject of another series is caspase 8. Nature of the series: Fluorometric caspase assay in PC-3MM2 cells, caspase 8. Particulars: 50 nM, 24 hr. The series is classed as cell-based, human. The procedure:
as §2

The next series relates to CT-26 (colon, MDR). Nature of the series: MTT cytotoxicity assay, CT-26 MDR. The series is classed as cell-based. Particulars: Mus musculus, CT26, multidrug resistant. The procedure: as §1, §3
The subject of another series is B16 (melanoma). Briefly: MTT cytotoxicity assay, B16. The conditions noted are these: mouse cells. In kind it is cell-based. The protocol: as §1, §3
The test system of another series is caspase 6. Nature of the series: Fluorometric caspase assay in PC-3MM2 cells, caspase 6. The series is classed as cell-based, human. Particulars: 50 nM, 24 hr. The procedure:
as §2

The next series has as its system MCF-7 (p53, wt). Nature of the series: MTT cytotoxicity assay, MCF-7. The series is classed as cell-based. The conditions noted are these: Homo sapiens, MCF7. The protocol: as §1, §3
The subject of a further series is UV2237 (fibrosarcoma). Nature of the series: MTT cytotoxicity assay, UV2237. The series is classed as cell-based. Particulars: mouse cells. The procedure: as §1, §3

The results in this text go back to patent publication US20070054908A1, “Novel pharmaceutical compositions and methods for treating tumors, including drug-resistant tumors” (priority 2005, published 2007).

Marks after values point to notes of the source that are not given here.

One may read the IC50 as the concentration at which inhibition is half-maximal.

Consider `COc1ccc(C(=O)c2cc([N+](=O)O)ccc2N2CCCCC2)cc1` (racemic) [DL-001, (4-Methoxy-phenyl)-(5-nitro-2-piperidin-1-yl-phenyl)-methanone], for which the IC50 in the series on DU145 (p53, mt) stood at 28 nM; with PC-3 (p53, del), 32 nM; in the series with MDA435 (p53, mt), 30 nM; in the series with CT-26 (colon), 39 nM; with 4T1 (breast), 30 nM; in series [1] it was 45 nM. For the same compound, the IC50 in series [2] was 51 nM; in the series on A375 (p53, wt), 23 nM; in the series on TRAMP (prostate) it was 41 nM; in the series with LNCaP (p53, wt), 11 nM; in the series on CT-26 (colon, MDR) it was 39 nM; in the series on B16 (melanoma), 26 nM. For the same compound, the IC50 turned out to be 17 nM in the series on MCF-7 (p53, wt) and 35 nM in the series with UV2237 (fibrosarcoma). The “effect on cell cycle and apoptosis” value in the series with PC-3MM2 cells was “arrested at S/G2 checkpoint of cell cycle and went into apoptosis”. In addition, the “toxic side effects on mice” value in the series on PC-3MM2 tumors is reported as “did not produce significant toxic side effects”. For the same compound, the “growth of PC-3MM2 tumors in the prostate of nude mice” value in the series with PC-3MM2 tumors (daily intraperitoneal injection, 10 mg/kg or 20 mg/kg (DL-001), from day 3, terminated 3 weeks later) is recorded as “inhibited growth of PC-3MM2 tumors in dose-dependent manner”. Also, in the series with caspase 2, the “Fold change of caspase activity compared with that in control cells, caspase 2” value (“Fold change of caspase activity … caspase 2” for short) is given as 17* fold. In addition, the “Fold change of caspase activity compared with that in control cells, caspase 3” value (from here on “Fold change of caspase activity … caspase 3”) with caspase 3 amounted to 22 fold. Further, in the series with caspase 9, the “Fold change of caspase activity compared with that in control cells, caspase 9” value (from here on “Fold change of caspase activity … caspase 9”) was 4 fold. Also, in the series with caspase 8, the “Fold change of caspase activity compared with that in control cells, caspase 8” value (from here on “Fold change of caspase activity … caspase 8”) came out at 1 fold. In addition, the “Fold change of caspase activity compared with that in control cells, caspase 6” value (from here on “Fold change of caspase activity … caspase 6”) in the series with caspase 6 came out at 1 fold.

`CC[C@]1(O)C[C@H]2CN(CCc3c([nH]c4ccccc34)[C@@](C(=O)OC)(c3cc4c(cc3OC)N(C=O)[C@H]3[C@@](O)(C(=O)OC)[C@H](OC(C)=O)[C@]5(CC)C=CCN6CC[C@]43[C@@H]65)C2)C1` [Vincristine, vincristine]: the IC50 in the series with DU145 (p53, mt) came to 5 nM; in the series with PC-3 (p53, del) it was 4 nM; in the series with CT-26 (colon), 16 nM; with CT-26 (colon, MDR) it was 38 nM. Also, the “Fold change of caspase activity … caspase 2” value in the series on caspase 2 was 18 fold. In the series on caspase 3, the “Fold change of caspase activity … caspase 3” value came out at 24 fold. Moreover, the “Fold change of caspase activity … caspase 9” value in the series with caspase 9 is 4 fold. In the series on caspase 8, the “Fold change of caspase activity … caspase 8” value stood at 1 fold. Also, the “Fold change of caspase activity … caspase 6” value in the series with caspase 6 stood at 1 fold.

For `COc1ccc(C(=O)c2cc([N+](=O)O)ccc2N2CCOCC2)cc1` (racemic) [DL-002, (4-Methoxy-phenyl)-(2-morpholin-4-yl-5-nitro-phenyl)-methanone], the half-maximal inhibitory concentration (IC50) in the series with DU145 (p53, mt) turned out to be 30 nM; in the series on PC-3 (p53, del), 30 nM. In the series with PC-3MM2 tumors, the “toxic side effects on mice” value is on record as “did not produce significant toxic side effects”.

With `CC(=O)O[C@H]1C(=O)[C@@]2(C)[C@H]([C@H](OC(=O)c3ccccc3)[C@]3(O)C[C@H](OC(=O)[C@H](O)[C@@H](NC(=O)c4ccccc4)c4ccccc4)C(C)=C1C3(C)C)[C@]1(OC(C)=O)CO[C@@H]1C[C@@H]2O` [Taxol], the IC50 turned out to be 3 nM in the series on DU145 (p53, mt); 4 nM in the series on PC-3 (p53, del); 73 nM in the series on CT-26 (colon); 367 nM with CT-26 (colon, MDR). Besides, the “effect on cell cycle and apoptosis” value in the series on PC-3MM2 cells was “arrested at S/G2 checkpoint of cell cycle and went into apoptosis”. Also, the “Fold change of caspase activity … caspase 2” value in the series on caspase 2 worked out at 26 fold. In addition, the “Fold change of caspase activity … caspase 3” value with caspase 3 was found to be 34 fold. Also, the “Fold change of caspase activity … caspase 9” value with caspase 9 was determined as 7 fold. Further, the “Fold change of caspase activity … caspase 8” value with caspase 8 turned out to be 1 fold. Also, in the series with caspase 6, the “Fold change of caspase activity … caspase 6” value amounted to 1 fold.
